What was measured:
[1] = tested on: neutrophils and vascular endothelial cells; assay: In vitro model simulating vascular inflammation induced by TNFα (transwell); assay type: cell-based, bovine; conditions: 30, 3 or 0.3 μM together with TNFα
Method: An in vitro model simulating vascular inflammation was prepared according to the method described in “Textbook on Biopharmaceutical Experiments, 12 Inflammation and Allergy II”, pp. 327-341 (edited by Kazuo Ouchi, published by Hirokawa Publishing Co., May 15, 1993).
Transwells (from Kurabo Industries, Ltd.) divided into upper and lower chambers by a porous polycarbonate membrane having a pore size of 3 μm were used and a layer of bovine endothelial cells were coated on the bottom of the membrane and incubated at 37° C. under 5% CO2 for 80 minutes. […]
To the upper chamber of the transwells was added a suspension of neutrophils containing 4(S)-OH-DHA at a final concentration of 30, 3 or 0.3 μM together with TNFα to count the number of neutrophils permeating the vascular endothelial cell layer from the upper chamber into the lower chamber and the number of neutrophils adhering to the endothelial cell layer in the same manner as described above, and thereafter the migration and adhesion (%) of neutrophils were calculated.
The migration and adhesion percentages of neutrophils were expressed as relative values of the numbers of neutrophils that migrated or adhered in the group treated with the drug as compared with neutrophils in a negative control group.

platelets = assay: Ex vivo collagen-induced platelet aggregation assay; assay type: in vivo, rats; conditions: 3-6 μg/ml collagen
Method: An evaluation was made to determine whether or not collagen-induced platelet aggregation is inhibited by 4(S)-OH-DHA.
Male SD rats (SPF, 9 weeks of age) were anesthetized and then blood was collected from the abdominal aorta into a tube containing 3.8% sodium citrate (Chitoral from Yamanouchi Pharmaceutical Co., Ltd.). The tube was centrifuged at 900 rpm at room temperature for 10 minutes to collect the supernatant (PRP, platelet-rich fraction), and the residue was further centrifuged at 2500 rpm for 15 minutes to collect the supernatant (PPP, platelet-poor fraction).
A cuvette containing PPP (platelet-poor fraction) was placed in an incubator for PPP at 37° C. in an aggregometer (Hematracer 240 12 ch, from MCM). Then, a cuvette containing 200 μl of PRP (platelet-rich fraction) was placed in a reactor for PRP. The cuvettes were stirred with a magnetic stirrer for 30 seconds to automatically correct the permeability of PPP to T650 nm=100% and the permeability of PRP to T650 nm=0%.
After 1 minute, 20 μl of collagen (from MCM) was added and subsequent changes in permeability were recorded for 5 minutes. The permeability increases with platelet aggregation. The permeability T at maximum aggregation, i.e. at the peak of aggregation was compared with the permeability T0 of a negative control to determine the degree of aggregation inhibition expressed in percentage using the following equation. Aggregation inhibition=(1−T/T0)×100
The aggregation induced by 3-6 μg/ml of collagen was evaluated in platelets prepared from blood collected at 2 instants, i.e. 10 minutes and 60 minutes after administration of 10 mg/kg of 4(S)-OH-DHA to the tail vain of male SD rats (SPF, 9 weeks of age). The aggregation was determined in animals treated with vehicle (physiological saline) as a control group.
As a control, a solvent (physiological saline) was used. Aggregation was induced by 3-6 μg/ml of collagen in platelets prepared from blood collected 10 minutes after administration of 10, 1 or 0.1 mg/kg of the test compound to the tail vain of rats.

[2] = tested on: GAL4 (yeast transcription activator)—PPARγ fusion protein; assay: PPARγ agonist activity assay (GAL4-PPARγ / CAT reporter in COS-1 cells); assay type: cell-based; conditions: for PPARγ agonist activity compared with 15-deoxy-PG J2 positive control: 1 μM; for PPARγ agonist activity relative to the negative control group with no drug added: concentration of 1 μM
Method: COS-1 cells were cotransfected with a plasmid for expressing a GAL4 (yeast transcription activator)—PPARγ fusion protein (effector plasmid) and a reporter plasmid 17 M2 CAT (GAL4 responsive sequence+TK promoter+chloramphenicol acetyltransferase cDNA), and then test compounds were added to the culture medium and CAT activity was assayed after 24 hours and compared with a negative control (with no drug added) to calculate a relative CAT activity, whereby PPARγ agonist activity was evaluated ('90 Proc. Natl. Acad. Sci. USA 87, p. 9995; '94 J. B. C. 269, p. 32700; '95 ibid. p. 5858; '00 J.B.C. 275, p. 33201). […] Then, 4(S)-OH-DHA, 8(S)-OH-DHA, 10(S)-OH-DHA, 11(S)-OH-DHA, 14(S)-OH-DHA and 17(S)-OH-DHA prepared in Example 1 were used as test compounds to assay PPARγ agonist activity as compared with 15-deoxy-PG J2 (from Bio Mol) known as a ligand for PPARγ as a positive control.

[3] = tested on: hereditary diabetes db/db mice; assay: Evaluation on hereditary diabetes mice (blood sugar); assay type: in vivo; conditions: oral 100 mg/kg for a week, n=6
Method: As a result of oral administration of 100 mg/kg of 8(S)-OH-DHA and 14(S)-OH-DHA to hereditary diabetes db/db mice (average body weight: 42 g, n=6, available from Sankyo Co., Ltd.) for a week, a significant decrease in blood sugar levels could be observed as compared with a negative control group (treated with 5% gum acacia as a vehicle) (Table 1).

rat aortic smooth muscle = conditions: contraction induced by thromboxane A2 analog U 46619 (2.5 μM); cited from earlier work

## CC/C=C\C/C=C\C/C=C\C/C=C\C/C=C\C=C\[C@@H](O)CCC(=O)O [4(S)-OH-DHA]
[1]
  Adhesion of neutrophils to the endothelial cell layer: inhibited
  Permeation (migration) of neutrophils through the endothelial cell layer: inhibited
platelets; 1 mg/kg to tail vein, blood collected 10 minutes after administration
  Platelet aggregation vs vehicle group: platelet aggregation was inhibited
platelets; 10 mg/kg to tail vein, blood collected 10 minutes after administration
  Platelet aggregation vs vehicle group: platelet aggregation was inhibited
platelets; 10 mg/kg to tail vein, blood collected 60 minutes after administration
  Platelet aggregation vs vehicle group: platelet aggregation was inhibited
[2]
  PPARγ agonist activity compared with 15-deoxy-PG J2 positive control: comparable to or higher than that of 15-deoxy-PG J2
[2]; CAT activity after 24 hours
  PPARγ agonist activity relative to the negative control group with no drug added: about 3 times

## CC/C=C\C/C=C\C/C=C\C/C=C\C[C@H](O)/C=C/C=C\CCC(=O)O [8(S)-OH-DHA]
[3]
  Blood sugar level: 190 ± 20 mg/dL
[2]
  PPARγ agonist activity compared with 15-deoxy-PG J2 positive control: comparable to or higher than that of 15-deoxy-PG J2
[2]; CAT activity after 24 hours
  PPARγ agonist activity relative to the negative control group with no drug added: about 7 times

## CC/C=C\C/C=C\C/C=C\C=C\[C@@H](O)C/C=C\C/C=C\CCC(=O)O [10(S)-OH-DHA]
[2]
  PPARγ agonist activity compared with 15-deoxy-PG J2 positive control: comparable to or higher than that of 15-deoxy-PG J2
[2]; CAT activity after 24 hours
  PPARγ agonist activity relative to the negative control group with no drug added: about 3 times

## CC/C=C\C/C=C\CC(O)/C=C/C=C\C/C=C\C/C=C\CCC(=O)O (stereo not drawn) [14OH-DHA]
Rat aortic smooth muscle
  25% inhibition concentration IC25: 1070 ± 340 nM

## CC/C=C\C[C@H](O)/C=C/C=C\C/C=C\C/C=C\C/C=C\CCC(=O)O [17(S)-OH-DHA]
[2]
  PPARγ agonist activity compared with 15-deoxy-PG J2 positive control: comparable to or higher than that of 15-deoxy-PG J2
[2]; CAT activity after 24 hours
  PPARγ agonist activity relative to the negative control group with no drug added: about 3 times

## CC/C=C\C/C=C\C[C@H](O)/C=C/C=C\C/C=C\C/C=C\CCC(=O)O [14(S)-OH-DHA]
[3]
  Blood sugar level: 220 ± 13 mg/dL
[2]
  PPARγ agonist activity compared with 15-deoxy-PG J2 positive control: comparable to or higher than that of 15-deoxy-PG J2
[2]; CAT activity after 24 hours
  PPARγ agonist activity relative to the negative control group with no drug added: about 7 times

## CC/C=C\C/C=C\C/C=C\C[C@H](O)/C=C/C=C\C/C=C\CCC(=O)O [11(S)-OH-DHA]
[2]
  PPARγ agonist activity compared with 15-deoxy-PG J2 positive control: comparable to or higher than that of 15-deoxy-PG J2
[2]; CAT activity after 24 hours
  PPARγ agonist activity relative to the negative control group with no drug added: about 3 times

## CC/C=C\C/C=C\C/C=C\C/C=C\C/C=C\C/C=C\CCC(=O)O [DHA, docosahexaenoic acid, reference compound]
[2]; test compound at 3 μM, CAT activity after 24 hours
  PPARγ transcription activity, ratio as compared with the negative control: 205±79%

From patent US20060142391A1, “PPARGAMMA-ACTIVATING PHARMACEUTICAL COMPOSITION” (priority 2001, published 2006)
